Results: patent US9920069B2, “Compounds for treatment of fluoroquinolone-resistant bacteria” (The Board of Trustees of the University of Illinois, priority 2014, dated 2018)

Legend:
[1] = tested on: VRE clinical isolate S344; assay type: cell-based, E. faecium
[2] = tested on: VRE clinical isolate S234; test: organism not typed; assay type: cell-based, E. faecalis
[3] = tested on: VRE clinical isolate S557; test: organism not typed; assay type: cell-based, E. faecium
[4] = tested on: VRE clinical isolate C27569; assay type: cell-based, E. faecium
[5] = tested on: VRE clinical isolate C28535; assay type: cell-based, E. faecalis
VRE clinical isolate D1 = test: organism not typed; assay type: cell-based, E. faecium
[6] = tested on: VRE clinical isolate C21667; assay type: cell-based, E. faecalis
[7] = tested on: VRE clinical isolate SL152; assay type: cell-based, E. faecium

Measured: MIC

Cc1cc(=O)n(C)c2c3c4c(cc12)c(C)cc(=O)n4CO3 [DNM, deoxynybomycin]
0.25 µg/mL: all assays above

CCn1c(=O)cc(C)c2cc3c(C)cc(=O)n4c3c(c21)OC4 [DNM-2]
0.25 µg/mL: [4] | [5]
